Values joined by “and” are separate entries in the source; they are usually repeats but may differ in a detail not shown here. Identical values can stand only once. Toxic doses and inconclusive results are not listed. No stated cut-off is given here; in the data, active means T/C of 150% or more; inactive means T/C below 125%. Peptide text beside a SMILES is read from it.
Tested on: L1210 leukemia ip in BDF1 mice, survival T/C
Assay: NCI In Vivo Anticancer Drug Screen. Data for tumor model L1210 Leukemia (intraperitoneal) in B6D2F1 (BDF1) mice
Settings: endpoint: mean survival time, higher = longer survival
How it was run: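 In this screen, tumor-bearing mice given compound are compared to those given vehicle, and their survival values are reported as a treated-to-control quotient.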

[1] = dose: 100.0 mg/kg/injection, schedule: Q04DX002 (ip), vehicle: saline with Tween-80
[2] = dose: 200.0 mg/kg/injection, schedule: Q04DX002 (ip), vehicle: saline with Tween-80
[3] = dose: 400.0 mg/kg/injection, schedule: Q04DX002 (ip), vehicle: saline with Tween-80
[4] = dose: 100.0 mg/kg/injection, schedule: Q01DX009 (ip), vehicle: saline with Tween-80
[5] = dose: 200.0 mg/kg/injection, schedule: Q01DX009 (ip), vehicle: saline with Tween-80
[6] = dose: 100.0 mg/kg/injection, schedule: Q01DX001 (ip), vehicle: Klucel (hydroxypropylcellulose) (HPC)
[7] = dose: 100.0 mg/kg/injection, schedule: Q01DX009 (ip), vehicle: Klucel (hydroxypropylcellulose) (HPC)
[8] = dose: 100.0 mg/kg/injection, schedule: Q04DX002 (ip), vehicle: Klucel (hydroxypropylcellulose) (HPC)
[9] = dose: 100.0 mg/kg/injection, schedule: Q04DX003 (ip), vehicle: Klucel (hydroxypropylcellulose) (HPC)
[10] = dose: 200.0 mg/kg/injection, schedule: Q01DX001 (ip), vehicle: Klucel (hydroxypropylcellulose) (HPC)
[11] = dose: 200.0 mg/kg/injection, schedule: Q01DX009 (ip), vehicle: Klucel (hydroxypropylcellulose) (HPC)
[12] = dose: 200.0 mg/kg/injection, schedule: Q04DX002 (ip), vehicle: Klucel (hydroxypropylcellulose) (HPC)
[13] = dose: 200.0 mg/kg/injection, schedule: Q04DX003 (ip), vehicle: Klucel (hydroxypropylcellulose) (HPC)
[14] = dose: 400.0 mg/kg/injection, schedule: Q01DX001 (ip), vehicle: Klucel (hydroxypropylcellulose) (HPC)
[15] = dose: 400.0 mg/kg/injection, schedule: Q01DX009 (ip), vehicle: Klucel (hydroxypropylcellulose) (HPC)
[16] = dose: 400.0 mg/kg/injection, schedule: Q04DX002 (ip), vehicle: Klucel (hydroxypropylcellulose) (HPC)
[17] = dose: 400.0 mg/kg/injection, schedule: Q04DX003 (ip), vehicle: Klucel (hydroxypropylcellulose) (HPC)
[18] = dose: 100.0 mg/kg/injection, schedule: Q01DX001 (ip), vehicle: carboxymethylcellulose (CMC)
[19] = dose: 200.0 mg/kg/injection, schedule: Q01DX001 (ip), vehicle: carboxymethylcellulose (CMC)
[20] = dose: 100.0 mg/kg/injection, schedule: Q01DX001 (ip), vehicle: other
[21] = dose: 200.0 mg/kg/injection, schedule: Q01DX001 (ip), vehicle: other
[22] = dose: 400.0 mg/kg/injection, schedule: Q01DX001 (ip), vehicle: other
[23] = dose: 100.0 mg/kg/injection, schedule: Q01DX001 (ip), vehicle: saline
[24] = dose: 200.0 mg/kg/injection, schedule: Q01DX001 (ip), vehicle: saline

Measured: T/C

CCOCCOCCOC(C)Oc1ccc(Cl)cc1Cl (stereo unspecified)
inactive: [1] 97 % of control | [2] 94 % of control | [3] 100 % of control

CC(C)C1=CC23CCC4C(C)(C(=O)O)CCCC4(C)C2CC1OO3 (stereo unspecified)
inactive: [4] 100 % of control | [5] 97 % of control | dose: 400.0 mg/kg/injection, schedule: Q01DX009 (ip), vehicle: saline with Tween-80 97 % of control

CC(=O)c1cccc(NC(=O)Nc2nccs2)c1
inactive: [6] 100 % of control | [7] 101 % of control and 92 % of control | [8] 101 % of control and 91 % of control | [9] 101 % of control | [10] 104 % of control | [11] 104 % of control | [12] 104 % of control and 109 % of control | [13] 103 % of control | [14] 96 % of control | [15] 109 % of control and 88 % of control | [16] 96 % of control | [17] 96 % of control

COc1ccc(OC)c(NC(=O)OCC(Cl)(Cl)Cl)c1
inactive: dose: 100.0 mg/kg/injection, schedule: Q01DX009 (ip), vehicle: saline 109 % of control | dose: 200.0 mg/kg/injection, schedule: Q01DX009 (ip), vehicle: saline 104 % of control | dose: 400.0 mg/kg/injection, schedule: Q01DX009 (ip), vehicle: saline 98 % of control

CC(=O)Nc1ccc(NC(=O)/C=C/c2ccccc2)cc1
inactive: [7] 103 % of control | [11] 95 % of control | [15] 105 % of control

CCCCCCCCCCCCCCCC(=O)ONC(N)=O
inactive: dose: 100.0 mg/kg/injection, schedule: Q01DX001 (ip), vehicle: saline with Tween-80 100 % of control | dose: 200.0 mg/kg/injection, schedule: Q01DX001 (ip), vehicle: saline with Tween-80 96 % of control | dose: 400.0 mg/kg/injection, schedule: Q01DX001 (ip), vehicle: saline with Tween-80 91 % of control

O=C1OCC/C1=C\c1ccccc1
inactive: [18] 91 % of control | [19] 94 % of control

CC(=O)OC1(C(C)(C)C)C(=O)C(=[N+]=[N-])C(O)(C(C)(C)C)C(=O)C1=[N+]=[N-] (stereo unspecified)
inactive: [20] 97 % of control | [21] 97 % of control | [22] 97 % of control

C#CCN(CC#C)c1ccccc1
inactive: [1] 100 % of control | [2] 93 % of control | [3] 97 % of control

CCCCCCCC[n+]1cccc(C#N)c1
inactive: dose: 18.75 mg/kg/injection, schedule: Q01DX009 (ip), vehicle: saline 104 % of control | dose: 37.5 mg/kg/injection, schedule: Q01DX009 (ip), vehicle: saline 91 % of control | dose: 37.5 mg/kg/injection, schedule: Q04DX003 (ip), vehicle: acetone 97 % of control | dose: 75.0 mg/kg/injection, schedule: Q01DX001 (ip), vehicle: saline 91 % of control | dose: 75.0 mg/kg/injection, schedule: Q01DX009 (ip), vehicle: saline 93 % of control | dose: 75.0 mg/kg/injection, schedule: Q04DX003 (ip), vehicle: acetone 97 % of control | dose: 150.0 mg/kg/injection, schedule: Q01DX001 (ip), vehicle: saline 95 % of control | dose: 150.0 mg/kg/injection, schedule: Q04DX003 (ip), vehicle: acetone 95 % of control

Cc1noc(NC(=O)Nc2ccccc2C(F)(F)F)c1C
inactive: [7] 95 % of control and 103 % of control | [8] 92 % of control and 97 % of control | [11] 92 % of control and 118 % of control | [12] 101 % of control and 119 % of control | [15] 101 % of control | [16] 105 % of control and 116 % of control

COC(=O)C(C)NC(=O)C(COC1OC(COC(C)=O)C(OC(C)=O)C(OC(C)=O)C1NC(C)=O)NC(=O)OCc1ccccc1 (stereo unspecified)
inactive: dose: 50.0 mg/kg/injection, schedule: Q04DX002 (ip), vehicle: Klucel (hydroxypropylcellulose) (HPC) 98 % of control | [8] 91 % of control | [12] 98 % of control

O=C(CI)NCc1cn(C2CC(O)C(CO)O2)c(=O)[nH]c1=O (stereo unspecified)
inactive: dose: 25.0 mg/kg/injection, schedule: Q01DX005 (ip), vehicle: water 105 % of control | dose: 50.0 mg/kg/injection, schedule: Q01DX005 (ip), vehicle: water 116 % of control | dose: 100.0 mg/kg/injection, schedule: Q01DX005 (ip), vehicle: water 116 % of control

CC(NC(=O)C(CCC(=O)NCC(=O)O)NC(=O)C(N)Cc1ccc(O)cc1)C(=O)NCC(=O)NC(Cc1ccc(O)cc1)C(=O)NC(CCC(=O)NCC(=O)O)C(=O)NC(C)C(=O)NCC(=O)NCC(=O)O (stereo unspecified) (H-YE(Gly)AGYE(Gly)AGG-OH; configuration not given here)
inactive: dose: 50.0 mg/kg/injection, schedule: Q01DX001 (ip), vehicle: saline 92 % of control | [23] 92 % of control | [24] 93 % of control

CCCOc1cc(C)c2cc(Cc3cc(C)c4nc(OCCC)cc(C)c4c3)cc(C)c2n1
inactive: [20] 87 % of control | [21] 95 % of control | [22] 101 % of control

Nc1nc(N)c2cc(CCc3ccccc3)ccc2n1
inactive: dose: 50.0 mg/kg/injection, schedule: Q01DX001 (ip), vehicle: carboxymethylcellulose (CMC) 95 % of control | [18] 95 % of control | [9] 95 % of control | [19] 101 % of control | [13] 90 % of control

COC(=O)C1Oc2ccc(Cl)cc2Cc2cc(Cl)ccc2O1
inactive: [7] 93 % of control | [9] 100 % of control | [11] 93 % of control | [13] 93 % of control | [15] 93 % of control | [17] 90 % of control

C=C1C(=O)OC2/C=C(/CO)C3OC3C3OC3(C)CC(OC(=O)/C(C)=C\COC(C)=O)C12 (stereo unspecified)
inactive: dose: 25.0 mg/kg/injection, schedule: Q04DX003 (ip), vehicle: Klucel (hydroxypropylcellulose) (HPC) 98 % of control | dose: 50.0 mg/kg/injection, schedule: Q04DX003 (ip), vehicle: Klucel (hydroxypropylcellulose) (HPC) 104 % of control | [9] 94 % of control and 89 % of control

COc1ccc2c(c1)CCC2=O
inactive: dose: 50.0 mg/kg/injection, schedule: Q01DX009 (ip), vehicle: saline with Tween-80 112 % of control | [4] 112 % of control | [9] 91 % of control | [13] 96 % of control

CCCN(CCC)N=Nc1ccccc1C(N)=O
inactive: [20] 107 % of control | [4] 90 % of control | dose: 100.0 mg/kg/injection, schedule: Q04DX003 (ip), vehicle: saline with Tween-80 104 % of control | [21] 102 % of control | [5] 102 % of control | dose: 200.0 mg/kg/injection, schedule: Q04DX003 (ip), vehicle: saline with Tween-80 94 % of control | [22] 103 % of control | dose: 400.0 mg/kg/injection, schedule: Q04DX003 (ip), vehicle: saline with Tween-80 98 % of control

Cc1cc(C)n(/N=C/c2c[nH]c3ccccc23)c(=O)c1C#N
inactive: [6] 97 % of control | [9] 97 % of control | [10] 97 % of control | [13] 94 % of control | [14] 96 % of control | [17] 97 % of control

CC1(C)OC(C)(C)C1(O)C(=O)O
inactive: [23] 97 % of control | [24] 101 % of control | dose: 400.0 mg/kg/injection, schedule: Q01DX001 (ip), vehicle: saline 105 % of control

CC(C)CC(NS(=O)(=O)Cc1ccccc1)C(=O)NNc1ccccc1 (stereo unspecified)
inactive: [20] 97 % of control | dose: 100.0 mg/kg/injection, schedule: Q04DX003 (ip), vehicle: other 95 % of control | [21] 94 % of control | dose: 200.0 mg/kg/injection, schedule: Q04DX003 (ip), vehicle: other 91 % of control | [22] 92 % of control

Reference: PubChem BioAssay AID248 (DTP/NCI, 2004)
